Test results: patent publication US9765115B2, “Inhibitors of metastasis, methods of generating such inhibitors and their therapeutic applications” (Board of Supervisors of Louisiana State University acting …, priority 2011, dated 2017)
Entries after “also recorded” stand apart in the source; their conditions may differ.

System: ZO-1 and claudin 3
Assay: In vivo 32P phosphorylation and phosphoserine/phosphothreonine immunoblotting
Type: cell-based
Experimental: Postconfluent cells cultured were serum-starved overnight, and then labeled with [^32P]orthophosphate (NEN/DuPont Chemicals) in phosphate-free serum-free Dulbecco's modified Eagle's medium for 3 hours at 37° C. The cells were then treated with calcitonin (CT) (50 nM for 10 min, 37° C.). When used, myristoylated PKA-inhibitory peptide (mPKI; 100 nM) was added 15 min prior to the addition of CT (50 nM). The cells were then washed with ice-cold phosphate-buffered saline, and lysed in 700 μl lysate buffer. The lysate was cleared by centrifugation for 10 min at 10,000×g. For immunoprecipitation, the supernatant was incubated overnight with primary antibody, and Protein A-Sepharose (40 μl, GE Healthcare) was added next morning. Washed immune complexes were fractionated on SDS-PAGE. The gels were either dried and exposed to film or transferred onto polyvinylidene difluoride membranes and immunoblotted as described above.
The IPs were processed for immunoblotting with either anti-phosphoserine or anti-phosphothreonine antibodies followed by secondary antibody and developed with ECL To control for protein loading and transfer, the blots were stripped and reprobed with the immunoprecipitating antibody.
To directly examine the involvement of PKA in CTR action on TJ disassembly, the in vivo incorporation of ^32PO4 in TJ proteins was examined. […] Arrows indicate location of ZO-1 and claudin-3. FIG. 17B depicts the total amount of ^32P-radioactivity of IP bands of ZO-1 and claudin from cells treated with CT (CT) and without treatment (Control, C). […] The results of occludin were inconclusive (data not shown).
Next, the phosphorylated amino acids in these proteins were identified by probing ZO-1 and claudin 3 immunoprecipitates with antisera against phosphoserine, phosphothreonine and phosphotyrosine. […] The blots were probed by antibodies to phosphoserine (Ser), phosphothreonine (Thr), and phosphotyrosine (Tyr). […] There was complete absence of phosphotyrosines in either of these TJ proteins, consistent with the role of PKA in CTR-stimulated phosphorylation of ZO-1 and claudin 3.
As shown above, the interaction of CTR with ZO-1 occurs between CTR-C PDZ-binding motif and PDZ3 domain of ZO-1. […] To examine the role of CTR-C PDZ-binding motif on phosphorylation of TJ proteins, the serine/threonine phosphorylation of ZO-1 and claudin 3 was analyzed in PC-3CTRwt and PC-3CTRΔESS cells. […] The immunoprecipitates were then probed with antibodies to phosphoserine. […] The immunoprecipitates were then probed with antibodies to phosphothreonine. The IPs of ZO-1 and claudin 3 were immunoblotted and probed for phosphoserine and phosphothreonine.

calcitonin [CT]
32P incorporation in immunoprecipitated ZO-1 and claudin 3 (CT 50 nM): ten-fold increase
incorporation of 32PO4 in ZO-1 and claudin 3 (autoradiogram) (CT 50 nM, 10 min): remarkable increase
serine/threonine phosphorylation of ZO-1 and claudin 3 (CT 50 nM, PC-3CTRwt cells): stimulated phosphorylation of serines and threonines in ZO-1 and only threonines in claudin-3; also recorded: detectable increase
phosphorylation of ZO-1 and claudin 3 (CT, PC-3CTRΔESS cells): did not induce phosphorylation
